Data reported in patent US20250129430A1, “HIGH ATP-AFFINITY PROTEIN AS THERAPEUTIC TARGET FOR INTRACTABLE CANCER MOLECULAR SUBTYPES AND INHIBITOR THEREOF” (VeraVerse Co., Ltd., priority 2021, published 2025).

Legend:
Test in all cases: Cell viability drug screen, 12-point dose-response AUC
Format in all cases: cell-based, human
[1] = system: FU97; set-up: Average Area Under the Viability Curve (AUC), AUC norm value: scale not given here; conditions: FU97 cells, 72 hours
Outline: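 Trapezoidal AUC of a 12-point, DMSO-normalized dose-response curve. Luminescent viability was measured after 72 h of exposure at 37° C to half-log serial dilutions (0.5% DMSO control), dosed 24 h after plating FU97 cells at 5×10^3 per well.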

[2] = system: NCC19; conditions: NCC19 cells, 72 hours
Outline: (§1)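 Viability: luminescence (Glo kit, 15 min RT), normalized to 0.5% DMSO vehicle. Dosing: half-log, 12 concentrations, 72 h. Cells: 5×10^3/well, treated 24 h after plating. Value: trapezoidal AUC, mean of repeats.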

[3] = system: SNU484; conditions: 72 hours; for Average Area Under the Viability Curve (AUC), AUC norm value: SNU484 cells (SEM subtype)
Outline: as §1

[4] = system: SK4; conditions: 72 hours; for Average Area Under the Viability Curve (AUC), AUC norm value: SK4 cells (SEM subtype)
Outline: as §1

[5] = system: SNU1; conditions: SNU1 cells, 72 hours
Outline: as §1

[6] = system: AGS; conditions: 72 hours; for Average Area Under the Viability Curve (AUC), AUC norm value: AGS cells (non-SEM subtype)
Outline: as §1

[7] = system: YCC11; conditions: 72 hours; for Average Area Under the Viability Curve (AUC), AUC norm value: YCC11 cells (SEM subtype)
Outline: as §1

[8] = system: SNU601; conditions: SNU601 cells, 72 hours
Outline: as §1

[9] = system: SNU620; conditions: SNU620 cells, 72 hours
Outline: as §1

[10] = system: NCC59; conditions: NCC59 cells, 72 hours
Outline: as §1

[11] = system: SNU719; conditions: SNU719 cells, 72 hours
Outline: as §1

[12] = system: NCC20; conditions: NCC20 cells, 72 hours
Outline: as §1

[13] = system: Hs746T; conditions: 72 hours; for Average Area Under the Viability Curve (AUC), AUC norm value: Hs746T cells (SEM subtype)
Outline: as §1

[14] = system: NCC24; conditions: NCC24 cells, 72 hours
Outline: as §1

[15] = system: NCI_N87; conditions: NCI_N87 cells, 72 hours
Outline: as §1

[16] = system: SNU638; conditions: SNU638 cells, 72 hours
Outline: as §1

[17] = system: OCUM1; conditions: OCUM1 cells, 72 hours
Outline: as §1

[18] = system: SNU1967; conditions: SNU1967 cells, 72 hours
Outline: as §1

[19] = system: YCC3; conditions: YCC3 cells, 72 hours
Outline: as §1

[20] = system: SNU1750; conditions: 72 hours; for Average Area Under the Viability Curve (AUC), AUC norm value: SNU1750 cells (SEM subtype)
Outline: as §1

[21] = system: SNU16; conditions: SNU16 cells, 72 hours
Outline: as §1

[22] = system: MKN28; conditions: MKN28 cells, 72 hours
Outline: as §1

[23] = system: SNU668; conditions: 72 hours; for Average Area Under the Viability Curve (AUC), AUC norm value: SNU668 cells (SEM subtype)
Outline: as §1

[24] = system: MKN1; conditions: MKN1 cells, 72 hours
Outline: as §1

[25] = system: MKN45; conditions: 72 hours; for Average Area Under the Viability Curve (AUC), AUC norm value: MKN45 cells (non-SEM subtype)
Outline: as §1

[26] = system: KATO3; conditions: KATO3 cells, 72 hours
Outline: as §1

[27] = system: MKN74; conditions: MKN74 cells, 72 hours
Outline: as §1

[28] = system: SNU216; conditions: 72 hours; for Average Area Under the Viability Curve (AUC), AUC norm value: SNU216 cells (non-SEM subtype)
Outline: as §1

[29] = system: YCC2; conditions: YCC2 cells, 72 hours
Outline: as §1

CO[C@@H](C(=O)N1Cc2n[nH]c(NC(=O)c3ccc(N4CCN(C)CC4)cc3)c2C1)c1ccccc1 [Danusertib (PHA-739358), Danusertib]
Average Area Under the Viability Curve (AUC), AUC norm value [1]: −2.488
Average Area Under the Viability Curve (AUC), AUC norm value [2]: 1.885
Average Area Under the Viability Curve (AUC), AUC norm value [3]: −1.537
Average Area Under the Viability Curve (AUC), AUC norm value [4]: −0.6677
Average Area Under the Viability Curve (AUC), AUC norm value [5]: −2.274
Average Area Under the Viability Curve (AUC), AUC norm value [6]: −1.034
Average Area Under the Viability Curve (AUC), AUC norm value [7]: −1.357
Average Area Under the Viability Curve (AUC), AUC norm value [8]: 2.877
Average Area Under the Viability Curve (AUC), AUC norm value [9]: −2.616
Average Area Under the Viability Curve (AUC), AUC norm value [10]: 1.632
Average Area Under the Viability Curve (AUC), AUC norm value [11]: 3.935
Average Area Under the Viability Curve (AUC), AUC norm value [12]: −4.082
Average Area Under the Viability Curve (AUC), AUC norm value [13]: 1.565
Average Area Under the Viability Curve (AUC), AUC norm value [14]: 0.9879
Average Area Under the Viability Curve (AUC), AUC norm value [15]: 2.122
Average Area Under the Viability Curve (AUC), AUC norm value [16]: −0.2145
Average Area Under the Viability Curve (AUC), AUC norm value [17]: 0.8742
Average Area Under the Viability Curve (AUC), AUC norm value [18]: 0.03541
Average Area Under the Viability Curve (AUC), AUC norm value [19]: 0.7949
Average Area Under the Viability Curve (AUC), AUC norm value [20]: −2.3091
Average Area Under the Viability Curve (AUC), AUC norm value [21]: −3.76
Average Area Under the Viability Curve (AUC), AUC norm value [22]: 1.245
Average Area Under the Viability Curve (AUC), AUC norm value [23]: 1.049
Average Area Under the Viability Curve (AUC), AUC norm value [24]: −0.8271
Average Area Under the Viability Curve (AUC), AUC norm value [25]: 2.103
Average Area Under the Viability Curve (AUC), AUC norm value [26]: −0.3046
Average Area Under the Viability Curve (AUC), AUC norm value [27]: 0.1321
Average Area Under the Viability Curve (AUC), AUC norm value [28]: 0
Average Area Under the Viability Curve (AUC), AUC norm value [29]: −0.9901

CCOc1cc2ncc(C#N)c(Nc3ccc(OCc4ccccn4)c(Cl)c3)c2cc1NC(=O)/C=C/CN(C)C [Neratinib (HKI-272), Neratinib]
Average Area Under the Viability Curve (AUC), AUC norm value [1]: −0.2016
Average Area Under the Viability Curve (AUC), AUC norm value [2]: 2.052
Average Area Under the Viability Curve (AUC), AUC norm value [3]: −1.2895
Average Area Under the Viability Curve (AUC), AUC norm value [4]: −1.282
Average Area Under the Viability Curve (AUC), AUC norm value [5]: 1.038
Average Area Under the Viability Curve (AUC), AUC norm value [6]: −0.9315
Average Area Under the Viability Curve (AUC), AUC norm value [7]: −1.333
Average Area Under the Viability Curve (AUC), AUC norm value [8]: 0.802
Average Area Under the Viability Curve (AUC), AUC norm value [9]: 1.117
Average Area Under the Viability Curve (AUC), AUC norm value [10]: 1.9785
Average Area Under the Viability Curve (AUC), AUC norm value [11]: 1.894
Average Area Under the Viability Curve (AUC), AUC norm value [12]: −1.6785
Average Area Under the Viability Curve (AUC), AUC norm value [13]: −0.2204
Average Area Under the Viability Curve (AUC), AUC norm value [14]: 1.205
Average Area Under the Viability Curve (AUC), AUC norm value [15]: −5.051
Average Area Under the Viability Curve (AUC), AUC norm value [16]: 0
Average Area Under the Viability Curve (AUC), AUC norm value [17]: 1.056
Average Area Under the Viability Curve (AUC), AUC norm value [18]: 0.8381
Average Area Under the Viability Curve (AUC), AUC norm value [19]: 0.3013
Average Area Under the Viability Curve (AUC), AUC norm value [20]: −0.4123
Average Area Under the Viability Curve (AUC), AUC norm value [21]: −1.491
Average Area Under the Viability Curve (AUC), AUC norm value [22]: 0.1864
Average Area Under the Viability Curve (AUC), AUC norm value [23]: 0.8456
Average Area Under the Viability Curve (AUC), AUC norm value [24]: −0.4985
Average Area Under the Viability Curve (AUC), AUC norm value [25]: 3.029
Average Area Under the Viability Curve (AUC), AUC norm value [26]: 1.505
Average Area Under the Viability Curve (AUC), AUC norm value [27]: −1.144
Average Area Under the Viability Curve (AUC), AUC norm value [28]: −2.1011
Average Area Under the Viability Curve (AUC), AUC norm value [29]: −0.1749

CC(/C=C/C(=O)NO)=C\[C@@H](C)C(=O)c1ccc(N(C)C)cc1 [Trichostatin A (TSA), Trichostatin A]
area under the viability curve (AUC), normalized ([1]; 12-point dose-response): −1.181
area under the viability curve (AUC), normalized ([2]; 12-point dose-response): −0.3026
area under the viability curve (AUC), normalized ([3]; SNU484 cells, 12-point dose-response): 0.4515
area under the viability curve (AUC), normalized ([4]; SK4 cells, 12-point dose-response): 0.7897
area under the viability curve (AUC), normalized ([5]; 12-point dose-response): −0.9946
area under the viability curve (AUC), normalized ([6]; AGS cells, 12-point dose-response): −1.137
area under the viability curve (AUC), normalized ([7]; YCC11 cells, 12-point dose-response): −0.2695
area under the viability curve (AUC), normalized ([8]; 12-point dose-response): 1.155
area under the viability curve (AUC), normalized ([9]; 12-point dose-response): −1.343
area under the viability curve (AUC), normalized ([10]; 12-point dose-response): 1.784
area under the viability curve (AUC), normalized ([11]; 12-point dose-response): 1.883
area under the viability curve (AUC), normalized ([12]; 12-point dose-response): −1.842
area under the viability curve (AUC), normalized ([13]; Hs746T cells, 12-point dose-response): 0.6621
area under the viability curve (AUC), normalized ([14]; 12-point dose-response): −1.307
area under the viability curve (AUC), normalized ([15]; 12-point dose-response): −0.01232
area under the viability curve (AUC), normalized ([16]; 12-point dose-response): −0.2758
area under the viability curve (AUC), normalized ([17]; 12-point dose-response): 0.1474
area under the viability curve (AUC), normalized ([18]; 12-point dose-response): −1.472
area under the viability curve (AUC), normalized ([19]; 12-point dose-response): 1.17
area under the viability curve (AUC), normalized ([20]; SNU1750 cells, 12-point dose-response): −1.0771
area under the viability curve (AUC), normalized ([21]; 12-point dose-response): 1.141
area under the viability curve (AUC), normalized ([22]; 12-point dose-response): −0.6515
area under the viability curve (AUC), normalized ([23]; SNU668 cells, 12-point dose-response): 0.1344
area under the viability curve (AUC), normalized ([24]; 12-point dose-response): 0.4223
area under the viability curve (AUC), normalized ([25]; MKN45 cells, 12-point dose-response): 2.215
area under the viability curve (AUC), normalized ([26]; 12-point dose-response): −0.1555
area under the viability curve (AUC), normalized ([27]; 12-point dose-response): 0.3005
area under the viability curve (AUC), normalized ([28]; SNU216 cells, 12-point dose-response): 0
area under the viability curve (AUC), normalized ([29]; 12-point dose-response): 0.2017
